Converted amounts (≈) assume the structure as drawn. The source made the active and inactive calls. No cut-off for these calls is given here.
Assays:
[1] = Therapeutic index, ratio of IC50 for human ARH-77 cells to MIC for Staphylococcus aureus Newman; type: toxicity, cell-based; details: read-out: TI
[2] = molecular target: T1, ATP-dependent Clp protease proteolytic subunit, mitochondrial (Homo sapiens, UniProt Q16740); assay: Induction of thermal stabilization of human ClpP extracted from Escherichia coli Rosetta (DE3) cells assessed as change in melting temperature at 10 uM incubated for 10 mins by DSF analysis
T1 sequence (Q16740 whole entry): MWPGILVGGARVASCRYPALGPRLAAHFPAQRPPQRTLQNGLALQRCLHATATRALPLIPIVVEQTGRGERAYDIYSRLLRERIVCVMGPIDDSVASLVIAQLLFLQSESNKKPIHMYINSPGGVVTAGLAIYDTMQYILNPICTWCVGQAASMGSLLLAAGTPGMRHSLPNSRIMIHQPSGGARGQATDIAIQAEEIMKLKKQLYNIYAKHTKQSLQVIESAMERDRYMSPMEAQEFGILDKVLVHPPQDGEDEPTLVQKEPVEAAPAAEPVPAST

Staphylococcus aureus [3] = assay: microbe, parasite or virus in culture; type: functional; details: USA300, time 18 hrs
Description: Antibacterial activity against methicillin-resistant Staphylococcus aureus USA300 assessed as inhibition of visible growth of bacteria incubated for 18 hrs by absorbance based analysis

[4] = Agonist activity at Lactobacillus acidophilus ClpP using alpha-casein as substrate assessed as substrate hydrolysis preincubated for 15 mins followed by substrate addition and measured after 2 hrs by SDS-PAGE analysis
[5] = molecular target: T2, ATP-dependent Clp protease proteolytic subunit (Staphylococcus aureus (strain NCTC 8325), UniProt Q2G036); assay: Agonist activity at Staphylococcus aureus ClpP extracted from Escherichia coli BL21 (DE3) cells using alpha-casein as substrate assessed as substrate hydrolysis preincubated for 15 mins followed by substrate addition and measured after 2 hrs by SDS-PAGE analysis
T2 sequence (Q2G036 whole entry): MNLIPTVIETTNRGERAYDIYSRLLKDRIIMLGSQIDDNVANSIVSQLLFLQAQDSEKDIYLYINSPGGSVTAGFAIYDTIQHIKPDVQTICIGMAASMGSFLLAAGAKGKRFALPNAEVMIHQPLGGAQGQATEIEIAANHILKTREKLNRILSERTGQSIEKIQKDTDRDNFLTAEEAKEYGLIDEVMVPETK

[6] = Therapeutic index, ratio of IC50 for HEK293T/17 cells to MIC for Staphylococcus aureus Newman; type: toxicity, cell-based; details: human, read-out: TI
[7] = molecular target: ATP-dependent Clp protease proteolytic subunit (Escherichia coli (strain K12), UniProt P0A6G7); assay: Agonist activity at Escherichia coli ClpP using alpha-casein as substrate assessed as substrate hydrolysis preincubated for 15 mins followed by substrate addition and measured after 2 hrs by SDS-PAGE analysis
Sequence of ATP-dependent Clp protease proteolytic subunit (Escherichia coli (strain K12), UniProt P0A6G7) (P0A6G7 whole entry): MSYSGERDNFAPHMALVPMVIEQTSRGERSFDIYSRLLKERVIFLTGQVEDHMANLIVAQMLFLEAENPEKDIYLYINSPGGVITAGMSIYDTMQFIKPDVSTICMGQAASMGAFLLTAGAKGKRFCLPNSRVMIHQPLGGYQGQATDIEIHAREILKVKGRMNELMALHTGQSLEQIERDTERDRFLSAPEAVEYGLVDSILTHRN

Staphylococcus aureus [8] = assay: microbe, parasite or virus in culture; type: functional; details: time 18 hrs
Description: Antibacterial activity against multidrug-resistant Staphylococcus aureus clinical isolate XJ052 assessed as inhibition of visible growth of bacteria incubated for 18 hrs by absorbance based analysis

[9] = Therapeutic index, ratio of IC50 for HK-2 cells to MIC for Staphylococcus aureus Newman; type: toxicity, cell-based; details: human, read-out: TI
Staphylococcus aureus [10] = assay: microbe, parasite or virus in culture; type: functional; details: time 18 hrs; remark: listed apart in the source
Description: Antibacterial activity against multidrug-resistant Staphylococcus aureus clinical isolate XJ009 assessed as inhibition of visible growth of bacteria incubated for 18 hrs by absorbance based analysis

Staphylococcus aureus [11] = assay: microbe, parasite or virus in culture; type: functional; details: time 18 hrs; remark: listed apart in the source
Description: Antibacterial activity against multidrug-resistant Staphylococcus aureus clinical isolate XJ049 assessed as inhibition of visible growth of bacteria incubated for 18 hrs by absorbance based analysis

[12] = molecular target: T1, ATP-dependent Clp protease proteolytic subunit, mitochondrial; assay: Agonist activity at human ClpP extracted from Escherichia coli Rosetta (DE3) cells using alpha-casein as substrate assessed as substrate hydrolysis preincubated for 15 mins followed by substrate addition and measured after 2 hrs by SDS-PAGE analysis
Staphylococcus aureus [13] = assay: microbe, parasite or virus in culture; type: functional; details: NRS-108, time 18 hrs
Description: Antibacterial activity against methicillin-resistant Staphylococcus aureus NRS-108 assessed as inhibition of visible growth of bacteria incubated for 18 hrs by absorbance based analysis

[14] = molecular target: T2, ATP-dependent Clp protease proteolytic subunit; assay: Agonist activity at Staphylococcus aureus ClpP extracted from Escherichia coli BL21 (DE3) cells using FITC-casein as substrate assessed as substrate hydrolysis preincubated for 60 mins followed by substrate addition and measured after 1 hrs by fluorescence based analysis
Staphylococcus aureus [15] = assay: microbe, parasite or virus in culture; type: functional; details: Newman, time 18 hrs
Description: Antibacterial activity against Staphylococcus aureus Newman assessed as inhibition of visible growth of bacteria incubated for 18 hrs by absorbance based analysis

Staphylococcus aureus [16] = assay: microbe, parasite or virus in culture; type: functional; details: NRS-70, time 18 hrs
Description: Antibacterial activity against methicillin-resistant Staphylococcus aureus NRS-70 assessed as inhibition of visible growth of bacteria incubated for 18 hrs by absorbance based analysis

Staphylococcus aureus [17] = assay: Antibacterial activity against Staphylococcus aureus USA300 infected in Zebrafish infection model assessed as increase in zebrafish survival at 5 to 25 mg/kg pre-infected for 1 hrs followed by compound addition and measured after 5 days; type: functional, organism-based; details: dose 5-25 mg/kg, time 5.0 day
Staphylococcus aureus [18] = assay: microbe, parasite or virus in culture; type: functional; details: time 18 hrs; remark: listed apart in the source
Description: Antibacterial activity against multidrug-resistant Staphylococcus aureus clinical isolate XJ051 assessed as inhibition of visible growth of bacteria incubated for 18 hrs by absorbance based analysis

Staphylococcus aureus [19] = assay: microbe, parasite or virus in culture; type: functional; details: time 18 hrs; remark: listed apart in the source
Description: Antibacterial activity against multidrug-resistant Staphylococcus aureus clinical isolate XJ025 assessed as inhibition of visible growth of bacteria incubated for 18 hrs by absorbance based analysis

[20] = molecular target: T3, ATP-dependent Clp protease proteolytic subunit (Staphylococcus aureus (strain NCTC 8325)) (UniProt Q2G036); assay: Induction of thermal stabilization of Staphylococcus aureus ClpP extracted from Escherichia coli BL21 (DE3) cells assessed as change in melting temperature at 10 uM incubated for 10 mins by DSF analysis
T3 sequence (whole entry): T2 sequence (Q2G036 whole entry)

Staphylococcus aureus [21] = assay: microbe, parasite or virus in culture; type: functional; details: NRS-271, time 18 hrs
Description: Antibacterial activity against methicillin-resistant Staphylococcus aureus NRS-271 assessed as inhibition of visible growth of bacteria incubated for 18 hrs by absorbance based analysis

Staphylococcus aureus [22] = assay: microbe, parasite or virus in culture; type: functional; details: NRS-1, time 18 hrs
Description: Antibacterial activity against methicillin-resistant Staphylococcus aureus NRS-1 assessed as inhibition of visible growth of bacteria incubated for 18 hrs by absorbance based analysis

[23] = Cytotoxicity against HEK293T/17 cells by MTT assay; type: toxicity, cell-based; details: human
Staphylococcus aureus [24] = assay: Antibacterial activity against methicillin resistant Staphylococcus aureus NRS 119 by CLSI protocol based broth microdilution method; type: functional
[25] = Therapeutic index, ratio of IC50 for HEK293T/17 cells to MIC for methicillin resistant Staphylococcus aureus NRS 119; type: toxicity, cell-based; details: human, read-out: TI
[26] = Octanol/water partition coefficient, log P of the compound at pH 7.4 incubated for 24 hrs by LC-MS analysis; type: physicochemical
Staphylococcus aureus [27] = assay: Antibacterial activity against oxacillin-resistant Staphylococcus aureus clinical isolate XJ049 infected in female ICR mouse peritonitis model assessed as mouse survival at 50 mg/kg, ip pre-infected for 1 hrs followed by compound addition and measured after 5 days relative to control; type: functional; details: 120 h, time 5 day

Row | SMILES | MIC (Staphylococcus aureus [3]) [µg/mL] | EC50 [5] [nM] | MIC (Staphylococcus aureus [8]) [µg/mL] | MIC (Staphylococcus aureus [10]) [µg/mL] | MIC (Staphylococcus aureus [11]) [µg/mL] | MIC (Staphylococcus aureus [13]) [µg/mL] | MIC (Staphylococcus aureus [15]) [µg/mL] | MIC (Staphylococcus aureus [16]) [µg/mL] | MIC (Staphylococcus aureus [18]) [µg/mL] | MIC (Staphylococcus aureus [19]) [µg/mL] | MIC (Staphylococcus aureus [21]) [µg/mL] | MIC (Staphylococcus aureus [22]) [µg/mL] | also measured
1 | CC[C@H](C)[C@H]1C(=O)N([C@H](C)c2cccc3ccccc23)C[C@@H]2N(C(=O)NCCCC(F)(F)F)CCC(=O)N12 | 1 (≈ 1.88 µM) | 1200 | 2 (≈ 3.76 µM) | 2 (≈ 3.76 µM) | 2 (≈ 3.76 µM) | 1 (≈ 1.88 µM) | 2 (≈ 3.76 µM) | 1 (≈ 1.88 µM) | 1 (≈ 1.88 µM) | 2 (≈ 3.76 µM) | 1 (≈ 1.88 µM) | 2 (≈ 3.76 µM) | selectivity ratio [1]: 27; ΔTm [2]: 3 °C; EC50 [4]: > 100000 nM; selectivity ratio [6]: 25; EC50 [7]: > 100000 nM; selectivity ratio [9]: 29; EC50 [12]: 31400 nM; EC50 [14]: 720 nM; Activity (Staphylococcus aureus [17]): Active; ΔTm [20]: 13 °C
2 | O=C1C2=C(CCN(Cc3ccccc3)C2)N2CCN=C2N1Cc1ccc(C(F)(F)F)cc1 | 0.5 (≈ 1.14 µM) | 1200 | 1 (≈ 2.27 µM) | 0.5 (≈ 1.14 µM) | 0.5 (≈ 1.14 µM) | 0.5 (≈ 1.14 µM) | 0.002 (≈ 0.00454 µM) | 0.5 (≈ 1.14 µM) | 0.5 (≈ 1.14 µM) | 0.5 (≈ 1.14 µM) | 0.25 (≈ 0.568 µM) | 1 (≈ 2.27 µM) | selectivity ratio [1]: 0.1; ΔTm [2]: 23.5 °C; EC50 [4]: 1140 nM; selectivity ratio [6]: 0.04; EC50 [7]: 3970 nM; selectivity ratio [9]: 0.06; EC50 [12]: 1900 nM; EC50 [14]: 720 nM; IC50 [23]: 0.002 µg/mL (≈ 0.00454 µM); ΔTm [20]: 15.9 °C
3 | C[C@@H]1C[C@H]2C(=O)OC[C@H](NC(=O)[C@H](Cc3cc(F)cc(F)c3)NC(=O)CCC3CCCCC3)C(=O)N3CCC[C@H]3C(=O)N3CCCC[C@H]3C(=O)N[C@@H](C)C(=O)N2C1 | – | – | – | – | – | – | – | – | – | – | – | – | MIC (Staphylococcus aureus [24]): 0.4 µg/mL (≈ 0.501 µM); IC50 [23]: 3.7 µg/mL (≈ 4.63 µM); selectivity ratio [25]: 9.3
4 | O=C1[C@H](Cc2cnc[nH]2)N2C(=O)CCN(C(=O)NCc3ccccc3)[C@H]2CN1Cc1cccc2ccccc12 | – | 500 | – | – | – | – | > 128 | – | – | – | – | – | logD at 24 h [26]: 3.09
5 | CN[C@@H]1[C@@H](O)[C@@H](O[C@@H]2[C@@H](O)[C@H](O[C@H]3O[C@H](CN)CC[C@H]3N)[C@@H](N)C[C@H]2N)OC[C@]1(C)O [GENTAMICIN C1A] | 1 (≈ 2.22 µM) | – | > 128 | 64 (≈ 142 µM) | 128 (≈ 285 µM) | 0.25 (≈ 0.556 µM) | 0.5 (≈ 1.11 µM) | 0.5 (≈ 1.11 µM) | > 128 | 128 (≈ 285 µM) | 0.5 (≈ 1.11 µM) | > 128 | –
6 | NC[C@H]1O[C@H](O[C@H]2[C@H](O)[C@@H](O[C@H]3O[C@H](CO)[C@@H](O)[C@H](N)[C@H]3O)[C@H](N)C[C@@H]2N)[C@H](O)[C@@H](O)[C@@H]1O [KANAMYCIN] | > 128 | – | > 128 | > 128 | > 128 | 64 (≈ 132 µM) | 4 (≈ 8.26 µM) | 64 (≈ 132 µM) | > 128 | > 128 | 2 (≈ 4.13 µM) | > 128 | –
7 | CCn1cc(C(=O)O)c(=O)c2cc(F)c(N3CCNCC3)cc21 [NORFLOXACIN] | 16 (≈ 50.1 µM) | – | > 128 | > 128 | > 128 | 32 (≈ 100 µM) | 0.25 (≈ 0.783 µM) | 1 (≈ 3.13 µM) | > 128 | > 128 | > 128 | 64 (≈ 200 µM) | –
8 | Cc1onc(-c2ccccc2)c1C(=O)N[C@@H]1C(=O)N2[C@@H]1SC(C)(C)[C@@H]2C(=O)O [OXACILLIN] | 0.25 (≈ 0.623 µM) | – | > 128 | > 128 | > 128 | 0.25 (≈ 0.623 µM) | 0.13 (≈ 0.324 µM) | 0.25 (≈ 0.623 µM) | > 128 | 32 (≈ 79.7 µM) | 32 (≈ 79.7 µM) | 64 (≈ 159 µM) | survival at 50 mg/kg (Staphylococcus aureus [27]): 56%
